Where “and” joins values, the source holds several entries; their conditions need not be identical. Equal entries are not always repeated. Where two headings read alike, the source gives them in different places.
Experiments:
[1] = molecular target: T1, 5-HT2A receptor (Homo sapiens, UniProt P28223); assay: FLIPR Ca2+ flux functional assay, 5-HT2A; assay type: cell-based; settings: agonist activity, Ca2+ flux, HEK293 cells
T1 construct: host or cells: HEK293

[2] = molecular target: T2, 5-HT2C receptor (Homo sapiens, UniProt P28335); assay: cell-based; settings: agonist activity, Ca2+ flux, HEK293 cells
T2 construct: host or cells: HEK293
T2 sequence (P28335 33-458): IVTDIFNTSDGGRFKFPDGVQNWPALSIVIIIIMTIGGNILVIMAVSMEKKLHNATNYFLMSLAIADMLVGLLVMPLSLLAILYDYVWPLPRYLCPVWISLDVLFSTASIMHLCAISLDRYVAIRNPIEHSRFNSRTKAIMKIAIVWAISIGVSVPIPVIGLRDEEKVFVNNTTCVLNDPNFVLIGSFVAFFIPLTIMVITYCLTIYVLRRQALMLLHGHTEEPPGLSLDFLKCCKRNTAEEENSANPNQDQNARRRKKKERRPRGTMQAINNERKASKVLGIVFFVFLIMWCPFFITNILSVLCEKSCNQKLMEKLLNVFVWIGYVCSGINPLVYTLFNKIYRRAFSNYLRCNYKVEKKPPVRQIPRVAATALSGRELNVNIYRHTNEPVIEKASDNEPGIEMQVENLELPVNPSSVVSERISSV

[3] = In vivo pharmacokinetics, plasma and brain exposure after IP dosing; parameters: species or system male C57BL/6 mice; settings: for B:P Ratio, Individual / Plasma Concentration, Individual / concentration at 0.5 h / concentration at 0.083 h / concentration at 4 h / Kp at 0.083 h / Kp at 0.5 h / Kp at 4 h: 10 mg/kg; for Kp at 0.083 h / Kp at 0.5 h / Kp at 4 h: brain/plasma; for Cmax / Tmax / AUC(0-inf) / half-life: mouse, male C57BL/6 mice; for AUC(0-inf): read-out: Plasma AUC0-inf; for half-life: read-out: Apparent T1/2 (converted)
Procedure: The systemic exposure of selected examples was studied in non-fasted male C57BL/6 mice weighing between 18.9-25.5 g. Mice had access to food and water ad libitum throughout the pre- and post-dose sampling period.
On the day of dosing, the formulation of each compound was prepared by dissolving solid compound in phosphate buffer saline (50 mM) using vortexing, creating colourless solutions (pH 6.4-6.5) for each compound.
Compounds were dosed to mice by IP injection (10 mL/kg dose volume via a 27G needle; n=9 mice per compound) and blood samples were collected at 5 and 30 min; 1, 2 and 4 h post-dose (n=3 mice per time point for each compound). A maximum of three blood samples were obtained from each mouse, with plasma samples being taken via submandibular bleed (approximately 120 μL). Once collected, blood samples were centrifuged immediately, supernatant plasma was removed, and stored at −80° C. until analysis by LCMS. In addition, at the 5 and 30 min and 4 h post-dose time points, the whole brain was rapidly removed from the carcass soon after the blood collection. The whole brains were blotted to remove excess blood, placed into pre-weighed polypropylene vials, and weighed. The brains were snap frozen in dry ice and subsequently stored frozen (−80° C.) until analysis.
Concentrations of test compound in plasma and tissue samples were determined using an LCMS/MS method validated for linearity, accuracy, precision, matrix factor and recovery (Table 2). Test compound standard solutions were diluted from a concentrated stock solution (32 mM in H2O) using 50% can in H2O (v/v) and a calibration curve was prepared in a matched matrix to the test samples.
Plasma: The plasma calibration curve was prepared by spiking aliquots of blank mouse plasma (25 μL) with test compound standard solutions (5 μL) and internal standard solution (5 μL of diazepam, 5 μg/mL in 50% acetonitrile in water). Test plasma samples (25 μL) were thawed, mixed, and then spiked with internal standard solution (5 μL). Plasma protein precipitation was performed by addition of acetonitrile (3-fold volume ratio) and thorough vortex mixing. Samples were centrifuged (RCF=9391×g) for 3 minutes and the supernatant (90 μL) was collected for analysis.
Tissue: Pre-weighed tissue samples (brain) were homogenised using a glass rod in buffer containing an EDTA/potassium fluoride solution (0.1 M/4 mg/mL) as a stabilisation cocktail to minimise the potential for ex vivo degradation (3 mL cocktail/g tissue). The tissue homogenate was briefly centrifuged (RCF=79×g) for 10 seconds to separate the foam layer before transferring an aliquot of the tissue homogenate (200 μL) to a fresh Eppendorf tube for sample extraction. Calibration standards were prepared by spiking blank brain homogenate (200 μL) with the solution standards (10 μL) and the internal standard (10 μL). Study samples were similarly prepared, except that acetonitrile (10 μL) was added instead of solution standards to maintain the same volume. Protein precipitation was carried out by the addition of a 3-fold volume of acetonitrile, followed by vortex mixing and centrifugation (RCF=9391×g) for 3 min to recover the supernatant for analysis.
Replicate analysis: Triplicate analytical replicate (ARs) samples were prepared similarly to the standards for each sample type at three concentrations (50, 500 and 2,000 ng/ml) and repeat injections of these ARs were included throughout the analytical run to assess assay performance. The extraction of the test compound from the standards and ARs were conducted as described above.

[4] = test system: ARS-TST mouse model of depression; assay: Acute restraint stress tail suspension test (ARS-TST); assay type: in vivo; settings: male ICR mice, intraperitoneal, tested 10 minutes after treatment
Procedure: Male ICR mice (23±3 g) were purchased from BioLASCO (Taipei, Taiwan) at 4-5 weeks of age and allowed 5-7 days to acclimate to the animal research facility at Pharmacology Discovery Services (Taipei, Taiwan). Mice were housed in groups of 10 in a large cage (47×25×15 cm) on a 12-hour light cycle (lights on: 0700) and provided ad libitum food and water except during acute restraint stress and tail-suspension testing. Temperature was maintained at 20-24° C., and all rooms (colony and testing rooms) had similar lighting intensity. All aspects of this work including housing, experimentation, and animal disposal were performed in accordance with the “Guide for the Care and Use of Laboratory Animals: Eighth Edition” (The National Academies Press, Washington, DC, 2011) in a facility accredited by the Association for Assessment and Accreditation of Laboratory Animal Care. […]
Tail Suspension Test (TST) Procedure: Mice were individually suspended on the edge of a shelf, 58 cm above a tabletop, using adhesive tape placed approximately 1 cm from the tip of the tail, for a total duration of 7 minutes. Using a stopwatch, the experimenters blinded to treatment groups recorded the duration of immobility (defined as hanging passively and motionless) during the 5 minutes spanning from 2-7 minutes. The data from 0-2 minutes was not recorded. […]

[5] = 0.083 h, IP 10 mg/kg, individual mouse
[6] = 0.083 h, IP 10 mg/kg, individual mouse, read-out: Brain Parenchyma Concentration, Individual
[7] = 0.5 h, IP 10 mg/kg, individual mouse
[8] = 0.5 h, IP 10 mg/kg, individual mouse, read-out: Brain Parenchyma Concentration, Individual
[9] = 4 h, IP 10 mg/kg, individual mouse
[10] = 4 h, IP 10 mg/kg, individual mouse, read-out: Brain Parenchyma Concentration, Individual
[11] = male, C57BL/6, mouse, brain, ip, 0.083 h, n = 3, read-out: Brain Parenchyma Concentration, Mean ± SD
[12] = male, C57BL/6, mouse, brain, ip, 0.5 h, individual mouse, read-out: Brain Parenchyma Concentration, Individual
[13] = male, C57BL/6, mouse, brain, ip, 0.5 h, n = 3, read-out: Brain Parenchyma Concentration, Mean ± SD
[14] = male, C57BL/6, mouse, brain, ip, 4 h, n = 3, read-out: Brain Parenchyma Concentration, Mean ± SD
[15] = male, C57BL/6, mouse, ip, 0.083 h, individual mouse, read-out: B:P Ratio, Individual
[16] = male, C57BL/6, mouse, ip, 0.083 h, n = 3, read-out: B:P Ratio, Mean ± SD
[17] = male, C57BL/6, mouse, ip, 0.5 h, individual mouse, read-out: B:P Ratio, Individual
[18] = male, C57BL/6, mouse, ip, 0.5 h, n = 3, read-out: B:P Ratio, Mean ± SD
[19] = male, C57BL/6, mouse, ip, 4 h, individual mouse, read-out: B:P Ratio, Individual
[20] = male, C57BL/6, mouse, ip, 4 h, n = 3, read-out: B:P Ratio, Mean ± SD
[21] = male, C57BL/6, mouse, plasma, ip, 0.083 h, individual mouse, read-out: Plasma Concentration, Individual
[22] = male, C57BL/6, mouse, plasma, ip, 0.083 h, n = 3, read-out: Plasma Concentration, Mean ± SD
[23] = male, C57BL/6, mouse, plasma, ip, 0.5 h, individual mouse, read-out: Plasma Concentration, Individual
[24] = male, C57BL/6, mouse, plasma, ip, 0.5 h, n = 3, read-out: Plasma Concentration, Mean ± SD
[25] = male, C57BL/6, mouse, plasma, ip, 4 h, n = 3, read-out: Plasma Concentration, Mean ± SD

T1 sequence (P28223 whole entry): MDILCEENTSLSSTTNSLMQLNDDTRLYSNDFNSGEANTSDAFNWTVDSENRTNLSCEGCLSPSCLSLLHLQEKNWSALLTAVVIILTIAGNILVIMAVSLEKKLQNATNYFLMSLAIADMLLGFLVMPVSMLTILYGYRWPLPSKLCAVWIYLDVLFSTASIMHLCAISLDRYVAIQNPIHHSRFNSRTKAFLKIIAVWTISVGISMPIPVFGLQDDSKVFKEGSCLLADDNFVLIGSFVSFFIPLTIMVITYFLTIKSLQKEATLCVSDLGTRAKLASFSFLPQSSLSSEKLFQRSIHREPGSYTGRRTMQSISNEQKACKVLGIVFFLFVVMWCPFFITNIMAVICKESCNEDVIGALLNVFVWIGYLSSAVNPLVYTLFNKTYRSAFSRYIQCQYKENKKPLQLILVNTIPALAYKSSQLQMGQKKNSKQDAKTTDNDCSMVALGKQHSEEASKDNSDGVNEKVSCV

SMILES | Emax [1] [%] | Emax [2] [%] | B:P Ratio, Individual [3, 5] | Plasma Concentration, Individual [3, 5] | concentration at 0.5 h [3, 6] | B:P Ratio, Individual [3, 7] | Plasma Concentration, Individual [3, 7] | concentration at 0.5 h [3, 8] | B:P Ratio, Individual [3, 9] | Plasma Concentration, Individual [3, 9] | concentration at 0.5 h [3, 10] | concentration at 0.083 h [3, 11] [µM] | concentration at 0.5 h [3, 12] [µM] | concentration at 0.5 h [3, 13] [µM] | concentration at 4 h [3, 14] [µM] | Kp at 0.083 h [3, 15] | Kp at 0.083 h [3, 16] | Kp at 0.5 h [3, 17] | Kp at 0.5 h [3, 18] | Kp at 4 h [3, 19] | other results
CCN(C)CCc1c[nH]c2ccc(OC)c(C)c12 [Example P-37, N-ethyl-2-(5-methoxy-4-methyl-1H-indol-3-yl)-N-methylethan-1-amine] | 80.3 | 53.1 | 6.9 and 8.6 | 2.21 µM and 2.12 µM | 31.6 µM and 15.2 µM and 18.1 µM | 18 and 16 | 1.15 µM and 1.48 µM | 20.6 µM and 24.3 µM | 15 | 0.0091 µM and 0.0104 µM | 0.134 µM and 0.152 µM | 21.6 ± 8.76 | 25.9 | 23.6 ± 2.74 | 0.129 ± 0.0255 | 9.4 | 8.3 ± 1.3 | 20 | 18 ± 2 | 13 | concentration at 4 h ([3]; male, C57BL/6, mouse, brain, ip, 4 h, individual mouse, read-out: Brain Parenchyma Concentration, Individual): 0.102 µM; Kp at 4 h [3, 20]: 14 ± 1.2; concentration at 0.083 h [3, 21]: 3.36 µM; concentration at 0.083 h [3, 22]: 2.56 ± 0.0691 µM; concentration at 0.5 h [3, 23]: 1.28 µM; concentration at 0.5 h [3, 24]: 1.3 ± 0.162 µM; concentration at 4 h ([3]; male, C57BL/6, mouse, plasma, ip, 4 h, individual mouse, read-out: Plasma Concentration, Individual): 0.0081 µM; concentration at 4 h [3, 25]: 0.0092 ± 0.0012 µM; Cmax ([3]; plasma, IP 10 mg/kg): 2.56 µM; Tmax ([3]; plasma, IP 10 mg/kg): 4.98 min; AUC(0-inf) ([3]; plasma, IP 10 mg/kg): 1.72 µM·h; half-life ([3]; IP 10 mg/kg, plasma): 30 min; immobility time [4]: decrease immobility time
CCN(C)CCc1c[nH]c2c(C)cc(OC)cc12 [Example P-51, N-ethyl-2-(5-methoxy-7-methyl-1H-indol-3-yl)-N-methylethan-1-amine] | 69.2 | 57.3 | 6.1 and 4.0 | 5.38 µM and 7.55 µM | 33.0 µM and 30.4 µM | 11 and 9.2 | 4.49 µM and 3.79 µM | 49.3 µM and 35.0 µM | 8.4 and 8.7 | 0.0254 µM and 0.0505 µM and 0.111 µM | 0.230 µM and 0.424 µM and 0.958 µM | 30.7 ± 2.2 | 25.5 | 36.6 ± 12 | 0.538 ± 0.377 | 4.5 | 4.9 ± 1.1 | 7.4 | 9.2 ± 1.8 | 9.1 | concentration at 0.083 h ([3]; male, C57BL/6, mouse, brain, ip, 0.083 h, individual mouse, read-out: Brain Parenchyma Concentration, Individual): 28.6 µM; Kp at 4 h [3, 20]: 8.7 ± 0.33; concentration at 0.083 h [3, 21]: 6.37 µM; concentration at 0.083 h [3, 22]: 6.43 ± 1.09 µM; concentration at 0.5 h [3, 23]: 3.46 µM; concentration at 0.5 h [3, 24]: 3.91 ± 0.529 µM; concentration at 4 h [3, 25]: 0.0622 ± 0.0439 µM; Cmax ([3]; plasma, IP 10 mg/kg): 6.43 µM; Tmax ([3]; plasma, IP 10 mg/kg): 4.98 min; AUC(0-inf) ([3]; plasma, IP 10 mg/kg): 5.39 µM·h; half-life ([3]; IP 10 mg/kg, plasma): 36 min; immobility time [4]: decrease immobility time

Reference: patent US20250101038A1, “COMPOUNDS” (priority 2021, published 2025)
